This note sets out measurements from patent US20040137592A1, “Novel SMG-1” (Japan Science and Technology Agency, priority 2001, published 2004).

The target in one test is T1, 6H-hSMG-1 (Homo sapiens, UniProt Q96Q15).
T1 construct: made in house; host or cells: 293T cells transfected with SR6H-hSMG-1; immunoprecipitated with anti-polyhistidine antibody
Nature of the test: in vitro kinase assay of 6H-hSMG-1 with hUpf1/SMG-2 fusion protein (S1096) as substrate. The format is biochemical. The conditions noted are these: substrate hUpf1/SMG-2 fusion protein (S1096), read-out: IC50, inhibition of the kinase activity of 6H-hSMG-1. The protocol: The immunoprecipitates obtained in the Example 6(1) were washed with a lysis buffer F containing 0.25 mol/L LiCl, and then washed two times with a 1×kinase reaction buffer [10 mmol/L HEPES-KOH (pH7.5), 50 mmol/L β-glycerophosphoric acid, 50 mmol/L NaCl, 1 mmol/L dithiothreitol (DTT), and 10 mmol/L MnCl2].
To each of the washed immunoprecipitates, 25 μL of 2×kinase reaction buffer (that is, two-fold concentrations of the above kinase reaction buffer) was added. The phosphorylation reaction was started by adding 10 mmol/L ATP and 370 kBq [γ-^32P] ATP (6000 Ci/mmol; Amersham Pharmacia Biotech) in equal amounts (25 μL) and continued, with occasional stirring, at 30° C. for 30 minutes. The final reaction amount was maintained at 50 μL, then 25 μL of a 4×SDS sample buffer was added to stop the reaction. SDS-PAGE was performed at gel concentrations of 5.5% and 12.5%, and then autoradiography was carried out to detect the phosphorylated proteins. The phosphorylation strength of each protein was measured by an Image Analyzer BAS2000 (Fuji Film).
More particularly, 6H-hSMG-1 was prepared in accordance with the procedure described in Example 7(3). In the presence of various concentrations of wortmannin or caffeine shown in FIG. 26 and FIG. 27, the hUpf1/SMG-2 fusion protein (S1096) prepared in Example 9(3) was used as the substrate, to perform an in vitro kinase assay. […]

The subject of test [1] is BGG-39PTC mRNA in MEF-Tet OFF cells. Description: BGG reporter mRNA accumulation (NMD) in MEF-Tet OFF cells, Northern blotting. The format is cell-based. The conditions noted are these: 4.5 hours, 50 ng/ml doxycycline, FIG. 29. The procedure:
More particularly, MEF-Tet OFF cells were transfected with the reporter plasmid BGG-WT or the reporter plasmid BGG-39 PTC, and re-inoculated in eight dishes. The cells were then treated for 4.5 hours in the presence of 50 ng/ml doxycycline by various concentrations of caffeine (caff.), wortmannin (wort.), rapamycin (rap.), or cyclohexamide (CHX) shown in FIG. 29.
The Total RNA was analyzed by Northern blotting using the BGG probe. In FIG. 29, “BG WT” means the results in the case of use of the reporter plasmid BGG-WT, “BG PTC” means the results in the case of use of the reporter plasmid BGG-39PTC, and “GAPDH” means the results in the case of use of the cDNA of glyceryl aldehyde-3-phosphate dehydrogenase as a probe. Further, “cont.”, “caff.”, “wort.”, “rap.”, and “CHX” show the results of the control (that is, in the absence of wortmannin, caffeine, rapamycin, and cyclohexamide), the results in the presence of caffeine, the results in the presence of wortmannin, the results in the presence of rapamycin, and the results in the presence of cyclohexamide, respectively.

The subject of test [2] is hUpf1/SMG-2 phosphorylation in HeLa cells. The format is cell-based, human. Particulars: 30 min pretreatment, then 4.5 hours with 50 nmol/L okadaic acid, FIG. 28. The procedure: HeLa cells were pretreated for 30 minutes in the presence or absence of various concentrations of wortmannin, caffeine, or rapamycin shown in FIG. 28. Next, the cells were treated for 4.5 hours in the presence of wortmannin, caffeine, or rapamycin and in the presence or absence of 50 nmol/L okadaic acid. Cell lysates were prepared and analyzed by Western blotting using the anti-Upf1/SMG-2 antibody.
Further, “hUPF1-P” means phosphorylated hUpf1/SMG-2, while “hUPF1” means unphosphorylated hUpf1/SMG-2.

In test [3] the test system is hUpf1/SMG-2 in HeLa cells. Description: mobility shift of hUpf1/SMG-2 in HeLa cells treated with okadaic acid, Western blotting. Type of test: cell-based, human. Particulars: various concentrations, 4.5 hours, FIG. 23. The protocol: The HeLa cells were treated with various concentrations of okadaic acid (OA; Calbiochem) for 4.5 hours, and then were recovered and dissolved in the 1×SDS sample buffer. After 6% SDS-PAGE was performed, Western blotting using an anti-hUpf1/SMG-2 antibody was performed to determine the mobility shift of hUpf1/SMG-2.
Background: Immunoblotting shows a protein as a band on a membrane.

Each structure is given as a SMILES string. Like-named read-outs stand apart in the source and are kept apart here.

T1 sequence (Q96Q15 111-3661): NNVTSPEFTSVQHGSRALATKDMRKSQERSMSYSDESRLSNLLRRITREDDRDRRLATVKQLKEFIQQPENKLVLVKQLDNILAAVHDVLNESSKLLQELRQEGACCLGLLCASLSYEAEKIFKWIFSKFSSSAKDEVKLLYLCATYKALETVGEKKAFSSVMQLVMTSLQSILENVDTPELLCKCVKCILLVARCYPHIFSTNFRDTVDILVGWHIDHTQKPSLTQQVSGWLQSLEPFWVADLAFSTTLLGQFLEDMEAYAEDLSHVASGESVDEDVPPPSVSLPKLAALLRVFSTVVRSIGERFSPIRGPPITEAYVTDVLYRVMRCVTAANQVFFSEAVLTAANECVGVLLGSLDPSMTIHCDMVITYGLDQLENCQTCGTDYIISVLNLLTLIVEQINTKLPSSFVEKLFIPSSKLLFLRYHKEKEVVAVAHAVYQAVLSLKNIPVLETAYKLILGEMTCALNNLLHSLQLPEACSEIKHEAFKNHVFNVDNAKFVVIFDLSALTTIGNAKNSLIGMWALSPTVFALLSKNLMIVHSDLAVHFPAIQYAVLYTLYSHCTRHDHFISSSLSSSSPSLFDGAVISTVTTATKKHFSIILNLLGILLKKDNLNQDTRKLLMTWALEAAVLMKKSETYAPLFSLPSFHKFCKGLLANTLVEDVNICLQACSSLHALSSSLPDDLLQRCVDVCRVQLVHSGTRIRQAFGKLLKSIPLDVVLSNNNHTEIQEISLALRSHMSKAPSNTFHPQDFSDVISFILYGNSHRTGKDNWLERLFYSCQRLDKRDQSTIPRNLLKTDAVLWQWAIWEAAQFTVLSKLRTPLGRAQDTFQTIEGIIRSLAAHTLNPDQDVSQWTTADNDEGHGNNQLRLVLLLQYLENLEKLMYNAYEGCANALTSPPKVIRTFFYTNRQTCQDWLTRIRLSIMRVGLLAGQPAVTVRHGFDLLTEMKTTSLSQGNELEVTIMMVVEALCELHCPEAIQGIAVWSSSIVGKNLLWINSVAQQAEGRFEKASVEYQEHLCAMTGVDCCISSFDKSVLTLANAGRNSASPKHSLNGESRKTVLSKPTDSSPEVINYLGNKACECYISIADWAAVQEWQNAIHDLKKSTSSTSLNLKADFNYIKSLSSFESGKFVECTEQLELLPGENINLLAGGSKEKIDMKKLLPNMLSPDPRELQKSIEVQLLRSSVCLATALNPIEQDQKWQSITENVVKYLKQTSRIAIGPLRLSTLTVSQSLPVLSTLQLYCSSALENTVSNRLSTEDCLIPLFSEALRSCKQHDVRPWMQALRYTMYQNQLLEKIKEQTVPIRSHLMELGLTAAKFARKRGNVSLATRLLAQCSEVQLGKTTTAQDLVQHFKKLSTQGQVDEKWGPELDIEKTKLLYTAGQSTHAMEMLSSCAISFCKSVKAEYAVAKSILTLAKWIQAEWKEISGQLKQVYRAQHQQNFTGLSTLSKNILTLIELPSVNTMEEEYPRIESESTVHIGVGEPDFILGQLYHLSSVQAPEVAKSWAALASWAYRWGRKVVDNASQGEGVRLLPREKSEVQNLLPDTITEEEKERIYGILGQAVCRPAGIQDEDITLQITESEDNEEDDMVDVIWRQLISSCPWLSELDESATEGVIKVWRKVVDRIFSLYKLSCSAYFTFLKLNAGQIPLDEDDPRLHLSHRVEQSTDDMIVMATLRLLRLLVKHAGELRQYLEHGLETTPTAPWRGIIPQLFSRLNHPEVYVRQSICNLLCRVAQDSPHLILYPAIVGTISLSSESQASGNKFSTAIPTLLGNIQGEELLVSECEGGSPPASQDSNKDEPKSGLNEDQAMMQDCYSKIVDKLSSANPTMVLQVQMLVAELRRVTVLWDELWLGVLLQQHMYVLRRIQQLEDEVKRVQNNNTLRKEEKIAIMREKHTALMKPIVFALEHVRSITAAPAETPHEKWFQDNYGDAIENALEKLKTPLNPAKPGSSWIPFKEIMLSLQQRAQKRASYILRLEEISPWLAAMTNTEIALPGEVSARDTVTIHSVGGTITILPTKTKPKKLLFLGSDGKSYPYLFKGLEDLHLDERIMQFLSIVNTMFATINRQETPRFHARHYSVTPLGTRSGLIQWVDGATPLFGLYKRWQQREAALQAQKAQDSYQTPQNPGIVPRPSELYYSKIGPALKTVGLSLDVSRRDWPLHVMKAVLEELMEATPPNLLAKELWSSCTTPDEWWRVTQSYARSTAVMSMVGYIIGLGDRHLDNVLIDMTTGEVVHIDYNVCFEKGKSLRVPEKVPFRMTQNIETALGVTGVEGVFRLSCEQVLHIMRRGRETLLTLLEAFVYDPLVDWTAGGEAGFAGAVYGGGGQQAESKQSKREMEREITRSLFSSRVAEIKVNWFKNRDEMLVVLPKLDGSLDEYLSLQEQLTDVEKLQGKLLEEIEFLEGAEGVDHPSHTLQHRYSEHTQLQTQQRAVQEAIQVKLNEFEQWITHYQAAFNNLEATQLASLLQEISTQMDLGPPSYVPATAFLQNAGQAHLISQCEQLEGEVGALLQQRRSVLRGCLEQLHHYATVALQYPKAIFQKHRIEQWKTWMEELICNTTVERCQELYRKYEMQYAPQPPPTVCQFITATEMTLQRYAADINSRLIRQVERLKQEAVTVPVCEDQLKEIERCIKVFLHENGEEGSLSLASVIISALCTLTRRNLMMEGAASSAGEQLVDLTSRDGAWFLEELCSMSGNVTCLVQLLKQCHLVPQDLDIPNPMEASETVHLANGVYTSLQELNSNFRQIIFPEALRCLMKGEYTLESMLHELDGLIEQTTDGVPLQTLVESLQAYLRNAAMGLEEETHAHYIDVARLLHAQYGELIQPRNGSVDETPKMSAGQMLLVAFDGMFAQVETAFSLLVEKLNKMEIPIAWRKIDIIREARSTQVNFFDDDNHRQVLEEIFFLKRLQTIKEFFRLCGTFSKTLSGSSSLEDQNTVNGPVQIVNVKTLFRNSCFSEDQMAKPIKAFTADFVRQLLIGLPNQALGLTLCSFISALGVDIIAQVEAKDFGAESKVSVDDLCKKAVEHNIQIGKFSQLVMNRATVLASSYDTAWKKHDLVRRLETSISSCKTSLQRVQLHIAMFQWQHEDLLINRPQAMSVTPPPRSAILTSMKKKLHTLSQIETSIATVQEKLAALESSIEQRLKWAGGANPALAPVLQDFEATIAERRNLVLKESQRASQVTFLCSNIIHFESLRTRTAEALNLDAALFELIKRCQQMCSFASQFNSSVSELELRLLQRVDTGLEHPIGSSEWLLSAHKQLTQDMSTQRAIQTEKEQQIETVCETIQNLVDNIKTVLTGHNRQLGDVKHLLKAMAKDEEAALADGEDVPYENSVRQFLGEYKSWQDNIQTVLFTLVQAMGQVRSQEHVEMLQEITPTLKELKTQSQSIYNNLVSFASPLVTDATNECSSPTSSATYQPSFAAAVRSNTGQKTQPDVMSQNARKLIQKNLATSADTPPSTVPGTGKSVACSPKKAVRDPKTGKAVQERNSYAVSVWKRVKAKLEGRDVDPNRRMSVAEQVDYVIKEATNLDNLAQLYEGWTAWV

Broadly, the IC50 is the concentration at which inhibition is half-maximal. For the compound `COC[C@H]1OC(=O)c2coc3c2[C@@]1(C)C1=C(C3=O)[C@@H]2CCC(=O)[C@@]2(C)C[C@H]1OC(C)=O` [wortmannin], the IC50 at 6H-hSMG-1 (FIG. 26) is about 0.06 µM.
As to `C[C@@H]1C[C@@H]([C@H](O)CC2CC(=O)NC(=O)C2)C(=O)[C@@H](C)C1` [CHX, cyclohexamide], the “inhibition of NMD” value in test [1] is recorded as “inhibited NMD”.
On to `Cn1c(=O)c2c(ncn2C)n(C)c1=O` [caffeine], for which the IC50 at 6H-hSMG-1 (FIG. 27) is about 300 µM. In addition, the “inhibition of the upward shift of hUpf1/SMG-2” value in test [2] was “inhibited the upward shift”. Further, in test [1], the “accumulation of BGG 39PTC mRNA” value is given as “resulted in the accumulation of BGG 39PTC”.
With `C=C1[C@@H](O)[C@@H]2O[C@]3(CC[C@H](/C=C/[C@@H](C)[C@@H]4CC(C)=C[C@@]5(O[C@H](C[C@@](C)(O)C(=O)O)CC[C@H]5O)O4)O3)CC[C@H]2O[C@@H]1[C@@H](O)C[C@H](C)[C@H]1O[C@@]2(CCCCO2)CC[C@H]1C` [okadaic acid], the “upwardly shifted (phosphorylated) band of hUpf1/SMG-2” value in test [3] is recorded as “upwardly shifted band of hUpf1/SMG-2 appears”.
